Data reported in publication PMC2957478 (Bioorganic & medicinal chemistry letters, 2009).

Biological target: PAI-1 (Homo sapiens, UniProt P05121)
Conditions: for inhibitory activity towards PAI-1 (in words): in vitro

Chain of PAI-1 (P05121 24-402, species assumed): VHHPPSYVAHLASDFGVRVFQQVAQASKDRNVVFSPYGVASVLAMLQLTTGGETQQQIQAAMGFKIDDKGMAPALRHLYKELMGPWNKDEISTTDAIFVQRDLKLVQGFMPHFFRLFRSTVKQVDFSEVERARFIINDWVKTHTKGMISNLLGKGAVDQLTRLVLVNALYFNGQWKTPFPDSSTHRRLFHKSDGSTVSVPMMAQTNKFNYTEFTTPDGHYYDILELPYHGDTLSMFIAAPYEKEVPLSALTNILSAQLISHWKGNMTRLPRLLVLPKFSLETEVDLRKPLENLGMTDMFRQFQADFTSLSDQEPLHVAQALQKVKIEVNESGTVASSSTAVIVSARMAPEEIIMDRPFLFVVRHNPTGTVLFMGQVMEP

| Structure (SMILES) | inhibitory activity towards PAI-1 (in words) | further results |
| --- | --- | --- |
| CCN(CCN(CC)S(=O)(=O)c1ccc(O)c(O)c1)S(=O)(=O)c1ccc(O)c(O)c1 [3b] | – | increase in inhibitor potency against PAI-1 compared to the non-alkylated version 3a (ratio of IC50 values vs 3a): about 55 fold |
| O=S(=O)(c1ccc(O)c(O)c1)N1CCN(S(=O)(=O)c2ccc(O)c(O)c2)CC1 [compound 4] | lacked significant inhibitory activity towards PAI-1 | – |
| CCN(CCN(CC)S(=O)(=O)c1cc(O)ccc1O)S(=O)(=O)c1cc(O)ccc1O [compound 7] | lacked significant potency towards PAI-1 | – |
| CCN(CCN(CC)S(=O)(=O)c1cc(F)c(O)c(F)c1)S(=O)(=O)c1cc(F)c(O)c(F)c1 [compound 13, bis-3,5-difluoro-4-hydroxybenzenesulfonamide] | – | fold less potent against PAI-1 than the 3,4-dihydroxy version (3b) (ratio of IC50 values vs 3b): roughly 15 fold |
